Results taken from patent US10450340B2, “3′-deamino-3′-(2″-pyrroline-1″-yl)-5-imino-13-deoxyanthracyclines and methods of preparation” (priority 2017, dated 2019).
Where two headings read alike, the source gives them in different places. Marks after values point to notes of the source that are not given here.

Legend:
SW-872 liposarcoma cells = experiment: Antiproliferative activity, resazurin assay, SW-872; assay type: cell-based; conditions: Homo sapiens, read-out: Drug IC50 Values
Procedure: (§1) The growth inhibitory potency of 2-pyrrolino-5-imino-13-deoxydoxorubicin IV, 5-imino-13-deoxydoxorubicin III, and doxorubicin I against several cancer cell lines was evaluated using the resazurin fluorescence assay. The growth inhibitory potency was measured as the inhibitory concentration of a compound required to inhibit cell growth by 50% (IC50). The cancer cells were seeded into 96-well plates (0.5-1×10^4 cells/well) with appropriate media, incubated with drug for 48 hours, and then treated with resazurin (final concentration, 0.01%), a non-fluorescent blue dye, for 24 hours. The fluorescence (Ex560 nm/Em590 nm) was recorded using a BioTek SynergyHT multiwell plate fluorimeter. Healthy cells metabolize resazurin to resorufin, a fluorescent pink dye. Thus, fluorescence is a proxy for cell viability and used to determine the effect of cytotoxic agents on cell cultures. […] The activity of 2-pyrrolino-5-imino-13-deoxydoxorubicin IV was also greater than that of doxorubicin I, with IC50 values that were, on average, lower than those of doxorubicin I.

[1] = tested on: RD rhabdomyosarcoma cells; experiment: Antiproliferative activity, resazurin assay, RD; assay type: cell-based; conditions: Homo sapiens, Rhabdomyosarcoma cell, read-out: Drug IC50 Values
Procedure: as §1

GCT histiocytoma cells = experiment: Antiproliferative activity, resazurin assay, GCT; assay type: cell-based; conditions: Homo sapiens, read-out: Drug IC50 Values
Procedure: as §1

[2] = tested on: HeLa cervical adenocarcinoma cells; experiment: Antiproliferative activity, resazurin assay, HeLa; assay type: cell-based; conditions: Homo sapiens, read-out: Drug IC50 Values
Procedure: as §1

[3] = tested on: T47D breast ductal carcinoma cells; experiment: Antiproliferative activity, resazurin assay, T47D; assay type: cell-based; conditions: Homo sapiens, read-out: Drug IC50 Values
Procedure: as §1

human cancer cell lines = experiment: Antiproliferative activity, average over the five cancer cell lines of Table 1; assay type: cell-based; conditions: for times more potent against cancer cells than a normal non-cancer cell line, on average: HADF IC50 / average cancer cell IC50; for IC50: Homo sapiens, read-out: Average Drug IC50 Values
Procedure: as §1
Even more unexpected and not predicted was that the selectivity of compound IV for cancer cells versus normal cells is shown to be 40 times greater compared to compound I (doxorubicin).

[4] = tested on: HADF human adult dermal fibroblasts; experiment: Cytotoxicity against normal cell line, resazurin assay; assay type: cell-based; conditions: for IC50: Fibroblast, read-out: Drug IC50 Values
Procedure: as §1
The compounds were also tested against a normal non-cancer cell line, normal human fibroblasts (HADF).

MES-SA cells = experiment: Antiproliferative activity, doxorubicin sensitive uterine fibrosarcoma; assay type: cell-based; conditions: Homo sapiens, read-out: Drug IC50 Values
Procedure: as §1
(§2) The compounds were further tested against a uterine fibrosarcoma cell line, MES-SA, sensitive to doxorubicin (compound I), and against a uterine fibrosarcoma cell line MES-SA/MX2 resistant to doxorubicin.

MES-SA/MX2 cells = experiment: Antiproliferative activity, doxorubicin resistant uterine fibrosarcoma; assay type: cell-based, human; conditions: for IC50: Homo sapiens, read-out: Drug IC50 Values; for potency in the resistant fibrosarcoma strain compared to the sensitive strain (times less potent): MES-SA/MX2 versus MES-SA
Procedure: as §1, §2

[5] = tested on: HT1080-luc fibrosarcoma cells; experiment: Inhibitory potency against HT1080-luc in vitro; assay type: cell-based; conditions: Homo sapiens, read-out: IC50±SEM
Procedure: The growth inhibitory potency of 2-pyrrolino-5-imino-13-deoxydoxorubicin IV, 5-imino-13-deoxydoxorubicin III, and doxorubicin I against several cancer cell lines was evaluated using the resazurin fluorescence assay. The growth inhibitory potency was measured as the inhibitory concentration of a compound required to inhibit cell growth by 50% (IC50). The cancer cells were seeded into 96-well plates (0.5-1×10^4 cells/well) with appropriate media, incubated with drug for 48 hours, and then treated with resazurin (final concentration, 0.01%), a non-fluorescent blue dye, for 24 hours. The fluorescence (Ex560 nm/Em590 nm) was recorded using a BioTek SynergyHT multiwell plate fluorimeter. Healthy cells metabolize resazurin to resorufin, a fluorescent pink dye. Thus, fluorescence is a proxy for cell viability and used to determine the effect of cytotoxic agents on cell cultures. […]
To assess in vivo drug activity against a primary tumor growth model of sarcoma, an experiment was conducted using commercially available human HT1080 fibrosarcoma cells engineered to express luciferase (HT1080-luc; PerkinElmer). The inhibitory potency of Compound III and Compound IV against HT1080-luc was measured in vitro by the methods described in Example 2. […]

HT1080-luc tumors = experiment: Primary tumor growth model of sarcoma in SCID mice; assay type: in vivo; conditions: for Averge tumor weight / tumor weight reduced / tumor progression by in vivo bioluminescent imaging: day 20; for Averge tumor weight: SCID mice; for tumor weight reduced: 2.4 mg/kg, relative to PBS; for tumor progression by in vivo bioluminescent imaging: relative to PBS-only treatment
Procedure: To assess in vivo drug activity against a primary tumor growth model of sarcoma, an experiment was conducted using commercially available human HT1080 fibrosarcoma cells engineered to express luciferase (HT1080-luc; PerkinElmer). The inhibitory potency of Compound III and Compound IV against HT1080-luc was measured in vitro by the methods described in Example 2. […] HT1080-luc tumors were initiated in 6 week old female SCID mice (Harlan) by orthotopic subcutaneous injection of 1×10^6 cells in each flank. After allowing the tumors to establish for 6 days, mice were randomized to one of three treatment groups and treated three times per week by intraperitoneal injection with compound IV or compound III, 2.4 mg/kg in physiological buffered saline (PBS), or vehicle (PBS). […] At day 20 tumor weight was reduced 53% with compound IV while reduced only 36% with compound III at the same given dose. […] This is in contrast to 2-pyrrolinodoxorubicin which can be lethal at its effective dose range.

[6] = tested on: HT1080 fibrosarcoma cells; experiment: cells; assay type: cell-based; conditions: for IC50 / IC10: 48 hours; for IC10: concentration inhibiting cell growth by 10%
Procedure: A fibrosarcoma cell line, HT1080, was used to measure the IC50's and IC10's (the inhibitory concentration of a compound required to inhibit cell growth by 10%) of Compound IV and Compound III, as described in Example 2. An IC50 concentration represents a therapeutic amount of compound. […] The cells were passaged and seeded at 5,000 cells/well on 96-well plates and the plates were incubated for 24 hours. After incubation, the media was changed and the IC50's and IC10's of compound IV and compound III were measured after 48 hours of incubation. Then, the IC50's of compound IV in the presence of compound III at an IC10 concentration and of compound III in the presence of compound IV at an IC10 concentration were measured after 48 hours of incubation. After the incubations, […] of 0.1% AlamarBlue in 1×PBS was added to each well. The plates were then incubated for a final 24 h. The plates were read on a microplate reader with an ex/em of 485/528.

advanced tumors = conditions: patients with advanced tumors; cited from earlier work
[7] = literature; cited from earlier work
[8] = tested on: cancer cells versus normal cells; conditions: as reported; cited from earlier work
topoisomerase II = conditions: compared with doxorubicin; Stepankova et al.; cited from earlier work
[9] = SW872, SW-872 liposarcoma, 48 hours drug, resazurin, mean ±SEM of 3 assays
[10] = RD rhabdomyosarcoma, 48 hours drug, resazurin, mean ±SEM of 3 assays
[11] = GCT histiocytoma, 48 hours drug, resazurin, mean ±SEM of 3 assays
[12] = HeLa cervical adenocarcinoma, 48 hours drug, resazurin, mean ±SEM of 3 assays
[13] = T47D breast ductal carcinoma, 48 hours drug, resazurin, mean ±SEM of 3 assays
[14] = average of SW-872, RD, GCT, HeLa, T47D
[15] = HADF normal human adult dermal fibroblasts, resazurin
[16] = MES-SA uterine fibrosarcoma (sensitive), mean ±SEM of 3 assays
[17] = MES-SA/MX2 uterine fibrosarcoma (resistant), mean ±SEM of 3 assays
[18] = 2.4 mg/kg intraperitoneal three times per week

Compound	IC50 (SW-872 liposarcoma cells; [9]) [µM]	IC50 [1, 10] [µM]	IC50 (GCT histiocytoma cells; [11]) [µM]	IC50 [2, 12] [µM]	IC50 [3, 13] [µM]	times more potent against cancer cells than a normal non-cancer cell line, on average (human cancer cell lines) [times]	IC50 (human cancer cell lines; [14]) [µM]	IC50 [4, 15] [µM]	IC50 (MES-SA cells; [16]) [µM]	IC50 (MES-SA/MX2 cells; [17]) [µM]	potency in the resistant fibrosarcoma strain compared to the sensitive strain (times less potent) (MES-SA/MX2 cells)	Averge tumor weight (HT1080-luc tumors; [18])	tumor weight reduced (HT1080-luc tumors) [%]	tumor progression by in vivo bioluminescent imaging (HT1080-luc tumors)	IC10 ([6]; compound alone, HT1080) [µM]	also measured
COc1cccc2c1C(=O)c1c(O)c3c(c(O)c1C2=O)C[C@@](O)(C(=O)CO)C[C@@H]3O[C@H]1C[C@H](N)[C@H](O)[C@H](C)O1 [Compound I, doxorubicin]	33.7 ± 7.5	0.43 ± 0.15	0.279 ± 0.036	0.605 ± 0.095	10.3 ± 7.8	2	9.06	18.9	0.55 ± 0.08	7.8 ± 1.8	14 times					
COc1cccc2c1C(=N)c1c(O)c3c(c(O)c1C2=O)C[C@@](O)(CCO)C[C@@H]3OC1CC(N)C(O)C(C)O1 (stereo partly drawn) [Compound III, 5-imino-13-deoxydoxorubicin]	7.38 ± 0.45	11.9 ± 3.99	3.37 ± 0.35	9.82 ± 0.93	18	5.8	10.1	58.9	10.5 ± 1	90		1.40 g	36	not significantly reduced	5.34	IC50 ([5]; HT1080-luc in vitro, methods of Example 2): 10 ± 6.1 µM; times more potent in the presence of a nontherapeutic amount (IC10) of the other compound [6]: 35 times; IC50 ([6]; Homo sapiens, HT-1080, 48 h, HT1080, read-out: IC50 of compound III in the presence of an IC10 of compound IV): 1.78 µM; IC50 ([6]; Homo sapiens, HT-1080, 48 h, compound alone, HT1080, read-out: IC50): 63.4 µM; IC50 ([6]; compound alone, HT1080, read-out: IC50): 63.7 µM; anticancer activity in Phase I clinical trial (advanced tumors): anticancer activity in a variety of carcinomas, sarcomas, and bladder cancer; tolerability in Phase I clinical trial (advanced tumors): well tolerated with relatively mild toxicity for an anthracycline
COc1cccc2c1C(=N)c1c(O)c3c(c(O)c1C2=O)C[C@@](O)(CCO)C[C@@H]3OC1CC(N2C=CCC2)C(O)C(C)O1 (stereo partly drawn) [Compound IV, 2-pyrrolino-5-imino-13-deoxydoxorubicin]						81					about equal in potency	1.03* g	53	reduced significantly statistically	0.84	IC50 (SW-872 liposarcoma cells; SW872, 48 h): 0.57 ± 0.23 µM; IC50 ([1]; 48 h): 0.44 ± 0.13 µM; IC50 (GCT histiocytoma cells; 48 h): 0.175 ± 0.015 µM; IC50 ([2]; HeLa, 48 h): 0.467 ± 0.104 µM; IC50 ([3]; T47D, 48 h): 0.817 ± 0.561 µM; IC50 (human cancer cell lines): 0.49 µM; times more potent than compound I for inhibiting cell growth of cancer cells, on average (human cancer cell lines; ratio of average IC50 values): 18 times; times more potent than compound III for inhibiting cell growth of cancer cells, on average (human cancer cell lines; ratio of average IC50 values): 20 times; cytotoxicity against HADF (normal) cells relative to doxorubicin I ([4]; 39.75/18.9): half as cytotoxic; IC50 ([4]; Homo sapiens): 39.8 µM; IC50 (MES-SA cells; MES-SA): 0.76 ± 0.16 µM; IC50 (MES-SA/MX2 cells; MES-SA): 0.66 ± 0.003 µM; times more potent than compound I in an anthracycline resistant cell line (MES-SA/MX2 cells; MES-SA/MX2): 12 times; IC50 [5]: 3.51 ± 1.79 µM; tolerability in mice (HT1080-luc tumors; [18]): well tolerated by the mice with no deaths and no overt signs of toxicity; times more potent in the presence of a nontherapeutic amount (IC10) of the other compound ([6]; HT1080, IC50 alone / IC50 in combination): 12 times; IC50 ([6]; Homo sapiens, HT-1080, 48 h, compound alone, HT1080): 12.5 µM; IC50 ([6]; Homo sapiens, HT-1080, 48 h, read-out: IC50 of compound IV in the presence of an IC10 of compound III, HT1080): 1 µM; IC50 ([6]; read-out: IC50 of compound IV in the presence of an IC10 of compound III, HT1080): 1.01 µM
COc1cccc2c1C(=O)c1c(O)c3c(c(O)c1C2=O)C[C@@](O)(C(=O)CO)C[C@@H]3OC1CC(N2C=CCC2)C(O)C(C)O1 (stereo partly drawn) [compound II, 3′-deamino-3′-(2″-pyrroline-1″-yl)doxorubicin]																toxicity relative to doses required for an anticancer effect [7]: toxic or lethal at or below doses that are required for an anticancer effect; selectivity for cancer cells versus normal cells [8]: little or no selectivity; ability of DNA modifications to inhibit catalytic activity of topoisomerase II (topoisomerase II): does not differ significantly from that of doxorubicin
